# Assay results reported in patent US7868037B2 (PTC Therapeutics, Inc., priority 2004, dated 2011).
# Like-named read-outs stand apart in the source and are kept apart here.
# Experiments:
# HCV replicon = assay: microbe, parasite or virus in culture; type: cell-based, hepatitis C virus; details: Hepatitis C virus
# [1] = tested on: cap-dependent translation (pLuc); assay: Western blot of Fluc reporter protein in pLuc cells; type: cell-based, human; details: 20 hours, data not shown
SMILES,IC50 (HCV replicon; read-out: Replicon IC50 μM),melting point,IC50 (HCV replicon; read-out: Replicon IC50),cap-dependent protein production (pLuc) in Western blot [1]
"CCn1c(-c2ccc(O)c(NC(=O)CCl)c2)c(C#N)c2ccc(OC)cc21 [Compound 333, 2-chloro-N-[5-(3-cyano-1-ethyl-6-methoxy-1H-indol-2-yl)-2-hydroxyphenyl]acetamide]",0.5 to 2 µM,237 to 240 °C,,
"CCn1c(-c2ccc3c(c2)NC(=O)CO3)c(C#N)c2ccc(OC)cc21 [Compound 334, 1-ethyl-6-methoxy-2-(3-oxo-3,4-dihydro-2H-benzo[1,4]oxazin-6-yl)-1H-indole-3-carbonitrile]",0.5 to 2 µM,242 to 246 °C,,
"CCn1c(-c2ccc3c(c2)N(C)C(=O)CO3)c(C#N)c2ccc(OC)cc21 [Compound 339, 1-ethyl-6-methoxy-2-(4-methyl-3-oxo-3,4,-dihydro-2H-benzo[1,4]oxazin-6-yl)-1H-indole-3-carbonitrile]",0.5 to 2 µM,215 to 219 °C,,
"CCn1c(-c2ccc3[nH]c(=O)oc3c2)c(C#N)c2ccc(OC)cc21 [Compound 340, 1-ethyl-6-methoxy-2-(2-oxo-2,3-dihydro-benzooxazol-6-yl)-1H-indole-3-carbonitrile]",> 2 µM,243 to 248 °C,,
"CCn1c(-c2ccc(Nc3nc(-c4ccccc4)nc4ccccc34)cc2)c(C#N)c2ccc(OC)cc21 [Compound 458, 1-ethyl-6-methoxy-2-[4-(2-phenylquinazolin-4-ylamino)-phenyl]-1H-indole-3-carbonitrile]",,272 to 273 °C,> 2 µM,
"CCn1c(-c2ccc(NS(C)(=O)=O)cc2)c(C#N)c2ccc(OCCN3CCOCC3)cc21 [Compound 478, N-{4-[3-cyano-1-ethyl-6-(2-morpholin-4-yl-ethoxy)-1H-indol-2-yl]-phenyl}methanesulfonamide]",,172 to 175 °C,< 0.5 µM,
"CCn1c(I)c(C#N)c2cc([N+](=O)[O-])c(OC)cc21 [Compound 499, 1-ethyl-2-iodo-6-methoxy-5-nitro-1H-indole-3-carbonitrile]",,235 to 250 °C,< 0.5 µM,
"CCn1c(-c2ccc(N3CCCS3(=O)=O)cc2)c(C#N)c2ccc(OC(C)C)cc21 [Compound 666, 2-[4-(1,1-dioxo-1λ^6-isothiazolidin-2-yl)phenyl]-1-ethyl-6-isopropoxy-1H-indole-3-carbonitrile]",< 0.5 µM,207 to 209 °C,,
CCn1c(-c2ccc(N(C)S(=O)(=O)CCN3CCOCC3)cc2)c(C#N)c2ccc(OC)cc21 [Compound 668],0.5 to 2 µM,171 to 174 °C,,
"COc1ccc2c(C#N)c(-c3ccc(N4CCCS4(=O)=O)cc3)n(CC3CC3)c2c1 [Compound 716, 2-[4-(1,1-dioxidoisothiazolidin-2-yl)phenyl]-1-cyclopropylmethyl-6-methoxy-1H-indole-3-carbonitrile]",< 0.5 µM,204 to 205 °C,,
"CCn1c(-c2ccc(N3CCNS3(=O)=O)cc2)c(C#N)c2ccc(OC)cc21 [Compound 725, 2-[4-(1,1-dioxo-1λ^6-[1,2,5]thiadiazolidin-2-yl)phenyl]-1-ethyl-6-methoxy-1H-indole-3-carbonitrile]",0.5 to 2 µM,215 to 216 °C,,
"CCn1c(-c2ccc(N3CCN(C)S3(=O)=O)cc2)c(C#N)c2ccc(OC)cc21 [Compound 726, 1-ethyl-6-methoxy-2-[4-(5-methyl-1,1-dioxo-1λ^6-[1,2,5]thiadiazolidin-2-yl)-phenyl]-1H-indole-3-carbonitrile]",0.5 to 2 µM,221 to 222 °C,,
"CCn1c(-c2ccc(N3CCCS3(=O)=O)cc2)c(C#N)c2ccc(OCCN3CCOCC3)cc21 [Compound 729, 2-[4-(1,1-dioxo-1λ^6-isothiazolidin-2-yl)-phenyl]-1-ethyl-6-(2-morpholin-4-yl-ethoxy)-1H-indole-3-carbonitrile]",> 2 µM,213 to 217 °C,,
"CCn1c(-c2cccc(NC(N)=S)c2)c(C#N)c2ccc(OC)cc21 [Compound 767, [3-(3-cyano-1-ethyl-6-methoxy-1H-indol-2-yl)-phenyl]-thiourea]",< 0.5 µM,204 to 205 °C,,
CCOc1ccc2c(C#N)c(-c3ccc(NP(=O)(OCC)OCC)cc3)n(CC)c2c1 [Compound 772],< 0.5 µM,211 to 212 °C,,
"CCOC(=O)CNC(=O)Nc1ccc(-c2c(C#N)c3ccc(OCC)cc3n2CC)cc1 [Compound 773, ethyl {3-[4-(3-cyano-6-ethoxy-1-ethyl-1H-indol-2-yl)-phenyl]-ureido}-acetate]",0.5 to 2 µM,191 to 193 °C,,
"CCOc1ccc2c(C#N)c(-c3ccc(N4CC(=O)NC4=O)cc3)n(CC)c2c1 [Compound 776, 2-[4-(2,4-dioxo-imidazolidin-1-yl)phenyl]-6-ethoxy-1-ethyl-1H-indole-3-carbonitrile]",< 0.5 µM,257 to 258 °C,,

SMILES,IC50 (HCV replicon; read-out: Replicon IC50 μM),melting point,IC50 (HCV replicon; read-out: Replicon IC50),cap-dependent protein production (pLuc) in Western blot [1]
"CCOc1ccc2c(C#N)c(-c3ccc(NC(=O)NC(Cc4ccccc4)C(=O)OC)cc3)n(CC)c2c1 (centres unmarked) [Compound 777, methyl 2-{3-[4-(3-cyano-6-ethoxy-1-ethyl-1H-indol-2-yl)-phenyl]-ureido}-3-phenyl-propionate]",< 0.5 µM,124 to 127 °C,,
"CCOc1ccc2c(C#N)c(-c3ccc(N4C(=O)CNC4=O)cc3)n(CC)c2c1 [Compound 779, 2-[4-(2,5-dioxo-imidazolidin-1-yl)-phenyl]-6-ethoxy-1-ethyl-1H-indole-3-carbonitrile]",< 0.5 µM,265 to 267 °C,,
"CCOc1ccc2c(C(=O)N(C)C)c(-c3ccc(N4C(=O)C(C)N(C)C4=O)cc3)n(CC)c2c1 (centres unmarked) [Compound 780, N,N-Dimethyl-2-[4-(3,4-dimethyl-2,5-dioxo-imidazolidin-1-yl)-phenyl]-6-ethoxy-1-ethyl-1H-indole-3-carboxamide]",0.5 to 2 µM,219 to 220 °C,,
"CCOc1ccc2c(C(=O)N(C)C)c(-c3ccc(N4C(=O)CN(C)C4=O)cc3)n(CC)c2c1 [Compound 781, N,N-Dimethyl-6-ethoxy-1-ethyl-2-[4-(3-methyl-2,5-dioxo-imidazolidin-1-yl)-phenyl]-1H-indole-3-carboxamide]",< 0.5 µM,207 to 208 °C,,
"CCn1c(N2CCN(C(=O)OC(C)(C)C)CC2)c(C#N)c2ccc(C(F)(F)F)cc21 [Compound 785, 4-(3-cyano-1-ethyl-6-trifluoromethyl-1H-indol-2-yl)-piperazine-1-carboxylic acid tert-butyl ester]",0.5 to 2 µM,151 to 153 °C,,
CCCn1c(-c2ccc(N3CCCS3(=O)=O)cc2)c(-c2cnco2)c2ccc(OC)cc21 [Compound 805],> 2 µM,217 to 222 °C,,
"CCn1c(-c2ccc(N(CCOC(C)=O)S(C)(=O)=O)cc2)c(C#N)c2ccc(OC)cc21 [Compound 815, N-(2-acetoxyethyl)-N-[4-(3-cyano-1-ethyl-6-methoxy-1H-indol-2-yl)-phenyl]methanesulfonamide]",> 2 µM,153 to 154 °C,,
"CCn1c(-c2ccc(N(CCO)S(C)(=O)=O)cc2)c(C#N)c2ccc(OC)cc21 [Compound 828, N-[4-(3-cyano-1-ethyl-6-methoxy-1H-indol-2-yl)-phenyl]-N-(2-hydroxyethyl)-methanesulfonamide]",0.5 to 2 µM,198 to 200 °C,,
"CCOc1ccc(-c2c(C#N)c3ccc(Br)cc3n2CC)cc1 [Compound 831, 6-Bromo-2-(4-ethoxyphenyl)-1-ethyl-1H-indole-3-carbonitrile]",> 2 µM,140 to 141 °C,,
"CCOc1ccc(-c2c(C#N)c3ccc(NC(=O)OC(C)(C)C)cc3n2CC)cc1 [Compound 832, [3-cyano-2-(4-ethoxy-phenyl)-1-ethyl-1H-indol-6-yl]-carbamic acid tert-butyl ester]",0.5 to 2 µM,206 to 207 °C,,
"CCOc1ccc(-c2c(C#N)c3ccc(N)cc3n2CC)cc1 [Compound 833, 6-amino-2-(4-ethoxyphenyl)-1-ethyl-1H-indole-3-carbonitrile]",0.5 to 2 µM,183 to 185 °C,,
"CCOc1ccc(-c2c(C#N)c3ccc(NS(=O)(=O)CC)cc3n2CC)cc1 [Compound 835, Ethanesulfonic acid [3-cyano-2-(4-ethoxyphenyl)-1-ethyl-1H-indol-6-yl]-amide]",0.5 to 2 µM,178 to 179 °C,,
"CCOC(=O)Nc1ccc2c(C#N)c(-c3ccc(OCC)cc3)n(CC)c2c1 [Compound 838, [3-cyano-2-(4-ethoxyphenyl)-1-ethyl-1H-indol-6-yl]-carbamic acid ethyl ester]",0.5 to 2 µM,193 to 194 °C,,
"CCNC(=O)Nc1ccc2c(C#N)c(-c3ccc(OCC)cc3)n(CC)c2c1 [Compound 839, 1-[3-cyano-2-(4-ethoxyphenyl)-1-ethyl-1H-indol-6-yl]-3-ethyl-urea]",> 2 µM,249 to 250 °C,,
"CCn1c(N2CCN(S(=O)(=O)C3CC3)CC2)c(C#N)c2ccc(C(F)(F)F)cc21 [Compound 842, 2-[4-(cyclopropylsulfonyl)piperazin-1-yl]-1-ethyl-6-(trifluoromethyl)-1H-indole-3-carbonitrile]",> 2 µM,170 to 171 °C,,
COc1ccc(C[C@H](N)C(=O)N[C@H]2[C@@H](O)[C@H](n3cnc4c(N(C)C)ncnc43)O[C@@H]2CO)cc1 [puromycin],,,,inhibited
